In US20160237450A1, “METHOD FOR ENHANCING DROUGHT TOLERANCE IN PLANTS” (Plant Response Biotech S.L., priority 2015, published 2016):

Legend:
Format in all cases: in vivo
pepper plants ('Murano') = assay: Pepper plant survival under extreme drought
Method: (§1) For each drought or limited water experiment 480 seeds (of either pepper, barley, tomato, cucumber or corn) were sown, producing 384 plants in 512 cm^3 pots (4 plants per pot). Plants were grown under chamber conditions at 21° C. for 3 weeks. Then, the plants were moved to a greenhouse, where average temperature was 25° C. to 28° C. Spray and irrigation treatments as described herein were done when the plants had two extended leaves and the next pair of leaves were coming up.
(§2) Treatments: Twelve pots (containing 48 plants) were irrigated with 40 ml of either: water, 0.1 g/L TMAO di-hydrate solution, 1.0 g/L TMAO di-hydrate solution, or 5.5 g/L TMAO di-hydrate solution. Another set of 12 pots containing 48 plants were sprayed with 40 ml of either water (3.3 ml in average per pot), a solution containing 0.1 g/L TMAO di-hydrate solution, 1.0 g/L TMAO di-hydrate, or 5 g/L, or 10 g/L TMAO di-hydrate. Further sets of 12 pots containing 48 plants were both sprayed with each initial solution TMAO di-hydrate solution and further irrigated with the same TMAO di-hydrate solutions used in the control water sprayed plants. All pots were also watered with 40 ml of water. The sprayed plants were watered with the same volume of water as the “irrigated plants). The pots were located on plastic glass to maintain constant moisture and to avoid liquid spillage during watering. Trays containing the pots were located on greenhouse tables. The distribution of the trays on the table and the position on the pots in the tray was changed every week to avoid position effects.
(§3) After the treatments described above, the plants were not watered until the pots completely lost their moisture, taking about 4 to 8 days depending on the season, at which point the plants were extremely wilted for the extreme drought experiments. The plants were then watered once with solutions containing the different amounts of TMAO di-hydrate (0.1 g/L, 1.0 g/L, 5 g/L, or 10 g/L) or just water, after which the plants were left to lose their moisture completely again for three consecutive cycles of watering after wilting. For the “extreme drought” experiments plants were allowed to wilt severely before watering and then the plant survival rate was recorded and analyzed.
TMAO di-hydrate applied exogenously, which increases the endogenous content of TMAO as if the plants were overexpressing an FMO protein at least 4 times increases plant survival in pepper plants under extreme drought conditions. ‘Murano’ pepper seeds were sown, grown and treated as described above.

corn plants ('FAO700') = assay: Corn number of green leaves under limited water; conditions: 30% water
Method: In order to determine the drought or drought stress tolerance after seed treatments with TMAO di-hydrate and germination in the presence of TMAO di-hydrate, barley “Hispanic” seeds, corn “FAO700” seeds, and “Sambro” sunflower seeds were surface sterilized for 3 minutes in ethanol 70%, then rinsed twice and finally included in a pre-treatment solution of 1 g/L TMAO di-hydrate solution (or just water) under shaking for 3 hours at a dose of 1 litre per Kg of seeds. Then, the seeds were sown in randomized plots of 10 sqm in a surface of 2.000 sqm. Chlorophyll content was measured 1 month before harvest. In corn irrigation was applied in half of the plots while the other half only received an initial establishment watering. The barley plots received 200 l of rain per m^2 through the growing season. Some of the plots received a second spray treatment with 1 g/liter of TMAO. […] At least 3 independent plants were treated per experiment.
TMAO di-hydrate applied exogenously which increases the endogenous content of TMAO as if the plants were overexpressing an FMO protein at least 4 times increases plant production in corn under limited water irrigation. Plants were irrigated with 30% of the water they normally require. ‘FAO700’ corn seeds were sown, grown and treated as described. Spray treatments with 1 g/L TMAO increased plant number of green leaves.

[1] = system: Arabidopsis thaliana plants (Col-0); assay: Drought fitness of wild type Arabidopsis sprayed with TMAO di-hydrate; conditions: Col-0 sprayed 1 g/L after first wilting cycle, scale 0 dead to 4 healthy
Method: Transgenic FMO3X and FMO8X genotypes and wild type Col-0 seeds of Arabidopsis thaliana were sown, grown and treated as described above. For the control group of both wild-type and transgenic plants, six week old plants were irrigated with 40 ml of water twice in the week, while “drought” treated plants of both wild-type and transgenic plants were not irrigated until all the plants were wilted.
After the first cycle of wilting wild type plants were sprayed with 1 g/L TMAO di-hydrate to determine if the wilted wild type plants could recover and perform as well as the transgenic plants in the following cycles of wilting. Fitness values were assigned using the following criteria: 0: Dead plant; 1: Critically damaged plant symptoms; 2: Moderate damaged plant symptoms; 3: Slightly damaged plant symptoms; and 4: Healthy plant.

[2] = system: tomato plants ('Moneymaker'); assay: Tomato plant survival under extreme drought
Method: as §1, §2, §3
TMAO di-hydrate applied exogenously, which increases the endogenous content of TMAO as if the plants were overexpressing an FMO protein at least 4 times, increases tomato plant survival under extreme drought conditions, where plants were allowed to fully wilt after three water-wilt cycles. Moneymaker tomato seeds were sown, grown and treated as described above. No statistical differences between modes of application (sprayed or TMAO di-hydrate watered) were observed on this experiment.

[3] = irrigation 0.1 g/L, initial spray 0.1 g/L
[4] = irrigation 0.1 g/L, initial spray 1 g/L
[5] = irrigation 0.1 g/L, initial spray water
[6] = irrigation 1 g/L, initial spray 0.1 g/L
[7] = irrigation 1 g/L, initial spray 1 g/L
[8] = irrigation 1 g/L, initial spray water
[9] = irrigation 5 g/L, initial spray 0.1 g/L
[10] = irrigation 5 g/L, initial spray 1 g/L
[11] = irrigation 5 g/L, initial spray water
[12] = irrigation all regimes, initial spray 0.1 g/L
[13] = irrigation all regimes, initial spray 1 g/L
[14] = irrigation water, initial spray 0.1 g/L
[15] = irrigation water, initial spray 1 g/L

C[N+](C)(C)[O-].O.O [TMAO di-hydrate, trimethylamine N-oxide di-hydrate]
SURVIVAL RATE (%) (pepper plants ('Murano'); [3]): 33.3 ± 8.3%
SURVIVAL RATE (%) (pepper plants ('Murano'); [4]): 54.1 ± 8.3%
SURVIVAL RATE (%) (pepper plants ('Murano'); irrigation 0.1 g/L, initial spray 10 g/L): 83.3 ± 8.3%
SURVIVAL RATE (%) (pepper plants ('Murano'); [5]): 29.1 ± 8.3%
SURVIVAL RATE (%) (pepper plants ('Murano'); [6]): 33.3 ± 7.7%
SURVIVAL RATE (%) (pepper plants ('Murano'); [7]): 33.3 ± 7.7%
SURVIVAL RATE (%) (pepper plants ('Murano'); irrigation 1 g/L, initial spray 10 g/L): 37.5 ± 7.7%
SURVIVAL RATE (%) (pepper plants ('Murano'); [8]): 0.0 ± 7.7%
SURVIVAL RATE (%) (pepper plants ('Murano'); [9]): 100 ± 3.8%
SURVIVAL RATE (%) (pepper plants ('Murano'); [10]): 100 ± 3.8%
SURVIVAL RATE (%) (pepper plants ('Murano'); irrigation 5 g/L, initial spray 10 g/L): 87.5 ± 3.8%
SURVIVAL RATE (%) (pepper plants ('Murano'); [11]): 95.8 ± 3.8%
SURVIVAL RATE (%) (pepper plants ('Murano'); [12]): 51.0 ± 3.6%
SURVIVAL RATE (%) (pepper plants ('Murano'); [13]): 62.5 ± 3.6%
SURVIVAL RATE (%) (pepper plants ('Murano'); irrigation all regimes, initial spray 10 g/L): 71.8 ± 3.6%
SURVIVAL RATE (%) (pepper plants ('Murano'); [14]): 37.5 ± 8.1%
SURVIVAL RATE (%) (pepper plants ('Murano'); [15]): 62.5 ± 8.1%
SURVIVAL RATE (%) (pepper plants ('Murano'); irrigation water, initial spray 10 g/L): 79.1 ± 8.1%
increase in biomass production shown in green leaf production over untreated plants with 30% irrigation (corn plants ('FAO700'); 1 g/L (rows 3 and 4: spray, seed)): 47%
AVERAGE NUMBER OF GREEN LEAVES (corn plants ('FAO700'); 1 g/L seed treatment): 8.50 ± 0.41
AVERAGE NUMBER OF GREEN LEAVES (corn plants ('FAO700'); 1 g/L spray): 8.50 ± 0.25
Mean Fitness Value ± S.E. [1]: 1.83 ± 0.21
appearance of treated plants compared to untreated control ([2]; irrigated with 5.5 g/L, 24 hours after drought recovery (FIG. 9)): extremely healthy
SURVIVAL RATE (%) [2, 3]: 12.5 ± 8.5%
SURVIVAL RATE (%) [2, 4]: 41.6 ± 8.5%
SURVIVAL RATE (%) ([2]; irrigation 0.1 g/L, initial spray 5 g/L): 68.9 ± 8.5%
SURVIVAL RATE (%) [2, 5]: 16.6 ± 8.5%
SURVIVAL RATE (%) [2, 6]: 0.0 ± 7.5%
SURVIVAL RATE (%) [2, 7]: 29.1 ± 7.5%
SURVIVAL RATE (%) ([2]; irrigation 1 g/L, initial spray 5 g/L): 33.3 ± 7.5%
SURVIVAL RATE (%) [2, 8]: 4.1 ± 7.5%
SURVIVAL RATE (%) [2, 9]: 12.5 ± 8.0%
SURVIVAL RATE (%) [2, 10]: 16.6 ± 8.0%
SURVIVAL RATE (%) ([2]; irrigation 5 g/L, initial spray 5 g/L): 50.0 ± 8.0%
SURVIVAL RATE (%) [2, 11]: 8.3 ± 8.0%
SURVIVAL RATE (%) [2, 12]: 12.5 ± 4.1%
SURVIVAL RATE (%) [2, 13]: 37.5 ± 4.1%
SURVIVAL RATE (%) ([2]; irrigation all regimes, initial spray 5 g/L): 56.6 ± 4.1%
SURVIVAL RATE (%) [2, 14]: 29.1 ± 9.1%
SURVIVAL RATE (%) [2, 15]: 62.5 ± 9.1%
SURVIVAL RATE (%) ([2]; irrigation water, initial spray 5 g/L): 74.2 ± 9.1%
